Data from article PMC9833666, “Designing and identifying β-hairpin peptide macrocycles with antibiotic potential” (Science Advances, 2023).
Where two headings read alike, the source gives them in different places. Bridge positions count the residues as written; N and C are the ends. Peptide text beside a SMILES is read from it.

Tests used:
[1] = system: Acinetobacter baumannii AB5075; settings: for AB5075 MIC FBS: 100% fetal bovine serum; for AB5075 MIC MH: Mueller-Hinton
[2] = system: Single-donor human red blood cells; assay: Hemolysis assay; assay type: cell-based; settings: hemolysis at 128 µg/ml, fold change relative to SySA-5
Summary of the method: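 Peptides at 300 μg/ml (SySA library) or 128 μg/ml (SySA-5 optimization library) were incubated in triplicate with washed single-donor RBCs (1 × 10^9 cells/ml) for 3 h at 37 °C. Supernatant A540 was background-normalized to PBS and expressed relative to 1% Triton X-100 (100% hemolysis).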

SMILES: CC(C)C[C@@H]1NC(=O)[C@H](CO)NC(=O)[C@H](C(C)C)NC(=O)[C@@H]2CSSC[C@H](NC(=O)[C@H](CC(C)C)NC(=O)[C@H](CCCNC(=N)N)NC(=O)[C@H](C(C)C)NC(=O)[C@H](CCCNC(=N)N)NC(=O)[C@H](CC(C)C)NC(=O)[C@@H](N)CSSC[C@@H](C(=O)O)NC(=O)[C@H](C(C)C)NC(=O)[C@H](CCCNC(=N)N)NC1=O)C(=O)N[C@@H](CCCNC(=N)N)C(=O)N[C@@H](CCCNC(=N)N)C(=O)N[C@@H](CCCNC(=N)N)C(=O)N2 [SySA-5.21] (H-CLRVRLCRRRCVSLRVC-OH; disulfide 1-17, 7-11 (inferred); N-terminus and C-terminus assumed)
- AB5075 MIC FBS ([1]; replicate 1): 128 µg/mL
- AB5075 MIC FBS ([1]; replicate 2): >128 µg/mL
- AB5075 MIC FBS ([1]; replicate 3): >128 µg/mL
- AB5075 MIC MH ([1]; replicate 1): 16 µg/mL
- AB5075 MIC MH ([1]; replicate 2): 16 µg/mL
- AB5075 MIC MH ([1]; replicate 3): 32 µg/mL
- Fold Change Hemolysis [2]: 2.4

SMILES: CC(C)C[C@@H]1NC(=O)[C@H](CCCNC(=N)N)NC(=O)[C@H](C(C)C)NC(=O)[C@@H]2CSSC[C@H](NC(=O)[C@H](CC(C)C)NC(=O)[C@H](CCCNC(=N)N)NC(=O)[C@H](C(C)C)NC(=O)[C@H](CCCNC(=N)N)NC(=O)[C@H](CC(C)C)NC(=O)[C@@H](N)CSSC[C@@H](C(=O)O)NC(=O)[C@H](C(C)C)NC(=O)[C@H](CCCNC(=N)N)NC1=O)C(=O)N[C@@H](CCCNC(=N)N)C(=O)N[C@@H](CCCNC(=N)N)C(=O)N[C@@H](CCCNC(=N)N)C(=O)N2 [SySA-5.22] (H-CLRVRLCRRRCVRLRVC-OH; disulfide 1-17, 7-11 (inferred); N-terminus and C-terminus assumed)
- AB5075 MIC FBS ([1]; replicate 1): 64 µg/mL
- AB5075 MIC FBS ([1]; replicate 2): 64 µg/mL
- AB5075 MIC FBS ([1]; replicate 3): 64 µg/mL
- AB5075 MIC MH ([1]; replicate 1): 32 µg/mL
- AB5075 MIC MH ([1]; replicate 2): 8 µg/mL
- AB5075 MIC MH ([1]; replicate 3): 32 µg/mL
- Fold Change Hemolysis [2]: 2.1

SMILES: CC(C)C[C@@H]1NC(=O)[C@H](CO)NC(=O)[C@H](C(C)C)NC(=O)[C@H](CCCCN)NC(=O)[C@@H]2CSSC[C@H](NC(=O)[C@H](CCCNC(=N)N)NC(=O)[C@H](CC(C)C)NC(=O)[C@H](CCCNC(=N)N)NC(=O)[C@H](C(C)C)NC(=O)[C@H](CCCNC(=N)N)NC(=O)[C@@H](N)CSSC[C@@H](C(=O)O)NC(=O)[C@H](CCCNC(=N)N)NC1=O)C(=O)N[C@@H](CCCNC(=N)N)C(=O)N[C@@H](CCCNC(=N)N)C(=O)NCC(=O)N[C@@H](CCCNC(=N)N)C(=O)N2 [SySA-5.16] (H-CRVRLRCRRGRCKVSLRC-OH; disulfide 1-18, 7-12 (inferred); N-terminus and C-terminus assumed)
- AB5075 MIC FBS ([1]; replicate 1): >128 µg/mL
- AB5075 MIC FBS ([1]; replicate 2): >128 µg/mL
- AB5075 MIC FBS ([1]; replicate 3): >128 µg/mL
- AB5075 MIC MH ([1]; replicate 1): 32 µg/mL
- AB5075 MIC MH ([1]; replicate 2): 64 µg/mL
- AB5075 MIC MH ([1]; replicate 3): 32 µg/mL
- Fold Change Hemolysis [2]: 1.3

SMILES: CC(C)C[C@@H]1NC(=O)[C@H](CCCNC(=N)N)NC(=O)[C@H](C(C)C)NC(=O)[C@H](CCCNC(=N)N)NC(=O)[C@H](CC(C)C)NC(=O)[C@@H](N)CSSC[C@@H](C(=O)O)NC(=O)[C@H](C(C)C)NC(=O)[C@H](CCCNC(=N)N)NC(=O)[C@H](CC(C)C)NC(=O)[C@H](CCCNC(=N)N)NC(=O)[C@H](C(C)C)NC(=O)[C@H](CCCCN)NC(=O)[C@H](C(C)C)NC(=O)[C@@H]2CSSC[C@H](NC1=O)C(=O)N[C@@H](CCCNC(=N)N)C(=O)N[C@@H](CCCNC(=N)N)C(=O)N[C@@H](CCCNC(=N)N)C(=O)N[C@@H](CCCNC(=N)N)C(=O)N2 [SySA-5.4] (H-CLRVRLCRRRRCVKVRLRVC-OH; disulfide 1-20, 7-12 (inferred); N-terminus and C-terminus assumed)
- AB5075 MIC FBS ([1]; replicate 1): 64 µg/mL
- AB5075 MIC FBS ([1]; replicate 2): 64 µg/mL
- AB5075 MIC FBS ([1]; replicate 3): 64 µg/mL
- AB5075 MIC MH ([1]; replicate 1): 4 µg/mL
- AB5075 MIC MH ([1]; replicate 2): 8 µg/mL
- AB5075 MIC MH ([1]; replicate 3): 8 µg/mL
- Fold Change Hemolysis [2]: 2.9

SMILES: CC(C)C[C@@H]1NC(=O)[C@H](CCCNC(=N)N)NC(=O)[C@H](C(C)C)NC(=O)[C@H](CCCNC(=N)N)NC(=O)[C@H](CC(C)C)NC(=O)[C@@H](N)CSSC[C@@H](C(=O)O)NC(=O)[C@H](C(C)C)NC(=O)[C@H](CCCNC(=N)N)NC(=O)[C@H](CC(C)C)NC(=O)[C@H](CCCNC(=N)N)NC(=O)[C@H](C(C)C)NC(=O)[C@H](CCCCN)NC(=O)[C@H](C(C)C)NC(=O)[C@@H]2CSSC[C@H](NC1=O)C(=O)N[C@@H](CC(N)=O)C(=O)N[C@@H](CCCNC(=N)N)C(=O)N[C@@H](CCCNC(=N)N)C(=O)N[C@@H](CCCNC(=N)N)C(=O)N2 [SySA-5.3] (H-CLRVRLCNRRRCVKVRLRVC-OH; disulfide 1-20, 7-12 (inferred); N-terminus and C-terminus assumed)
- AB5075 MIC FBS ([1]; replicate 1): 128 µg/mL
- AB5075 MIC FBS ([1]; replicate 2): 128 µg/mL
- AB5075 MIC FBS ([1]; replicate 3): 128 µg/mL
- AB5075 MIC MH ([1]; replicate 1): 8 µg/mL
- AB5075 MIC MH ([1]; replicate 2): 8 µg/mL
- AB5075 MIC MH ([1]; replicate 3): 8 µg/mL
- Fold Change Hemolysis [2]: 1.8

SMILES: CC(C)C[C@@H]1NC(=O)[C@H](CO)NC(=O)[C@H](C(C)C)NC(=O)[C@H](CCCCN)NC(=O)[C@H](C(C)C)NC(=O)[C@@H]2CSSC[C@H](NC(=O)[C@H](CC(C)C)NC(=O)[C@H](CCCNC(=N)N)NC(=O)[C@H](C(C)C)NC(=O)[C@H](CCCNC(=N)N)NC(=O)[C@@H](N)CSSC[C@@H](C(=O)O)NC(=O)[C@H](CCCNC(=N)N)NC1=O)C(=O)N[C@@H](CC(N)=O)C(=O)N[C@@H](CCCNC(=N)N)C(=O)N[C@@H](CCCNC(=N)N)C(=O)N[C@@H](CCCNC(=N)N)C(=O)N2 [SySA-5.8] (H-CRVRLCNRRRCVKVSLRC-OH; disulfide 1-18, 6-11 (inferred); N-terminus and C-terminus assumed)
- AB5075 MIC FBS ([1]; replicate 1): >128 µg/mL
- AB5075 MIC FBS ([1]; replicate 2): >128 µg/mL
- AB5075 MIC FBS ([1]; replicate 3): >128 µg/mL
- AB5075 MIC MH ([1]; replicate 1): 8 µg/mL
- AB5075 MIC MH ([1]; replicate 2): 8 µg/mL
- AB5075 MIC MH ([1]; replicate 3): 8 µg/mL
- Fold Change Hemolysis [2]: 0.8

SMILES: CC(C)C[C@@H]1NC(=O)[C@H](CCCNC(=N)N)NC(=O)[C@@H]2CSSC[C@H](NC(=O)[C@H](CCCNC(=N)N)NC(=O)[C@H](C(C)C)NC(=O)[C@H](CCCNC(=N)N)NC(=O)[C@@H](N)CSSC[C@@H](C(=O)O)NC(=O)[C@H](CCCNC(=N)N)NC1=O)C(=O)N[C@@H](CCCNC(=N)N)C(=O)N[C@@H](CCCNC(=N)N)C(=O)N[C@@H](CCCNC(=N)N)C(=O)N[C@@H](CCCNC(=N)N)C(=O)N[C@@H](CCCNC(=N)N)C(=O)N[C@@H](CCCCN)C(=O)N2 [SySA-5.27] (H-CRVRCRRRRRKCRLRC-OH; disulfide 1-16, 5-12 (inferred); N-terminus and C-terminus assumed)
- AB5075 MIC FBS ([1]; replicate 1): >128 µg/mL
- AB5075 MIC FBS ([1]; replicate 2): >128 µg/mL
- AB5075 MIC FBS ([1]; replicate 3): >128 µg/mL
- AB5075 MIC MH ([1]; replicate 1): 128 µg/mL
- AB5075 MIC MH ([1]; replicate 2): 128 µg/mL
- AB5075 MIC MH ([1]; replicate 3): 128 µg/mL
- Fold Change Hemolysis [2]: 0.6

SMILES: CC(C)C[C@@H]1NC(=O)[C@H](CCCNC(=N)N)NC(=O)[C@H](C(C)C)NC(=O)[C@H](CCCCN)NC(=O)[C@H](C(C)C)NC(=O)[C@@H]2CSSC[C@H](NC(=O)[C@H](CC(C)C)NC(=O)[C@H](CCCNC(=N)N)NC(=O)[C@H](C(C)C)NC(=O)[C@H](CCCNC(=N)N)NC(=O)[C@@H](N)CSSC[C@@H](C(=O)O)NC(=O)[C@H](CCCNC(=N)N)NC1=O)C(=O)N[C@@H](CCCNC(=N)N)C(=O)N[C@@H](CCCNC(=N)N)C(=O)N[C@@H](CCCNC(=N)N)C(=O)N[C@@H](CCCNC(=N)N)C(=O)N2 [SySA-5.9] (H-CRVRLCRRRRCVKVRLRC-OH; disulfide 1-18, 6-11 (inferred); N-terminus and C-terminus assumed)
- AB5075 MIC FBS ([1]; replicate 1): >128 µg/mL
- AB5075 MIC FBS ([1]; replicate 2): >128 µg/mL
- AB5075 MIC FBS ([1]; replicate 3): >128 µg/mL
- AB5075 MIC MH ([1]; replicate 1): 8 µg/mL
- AB5075 MIC MH ([1]; replicate 2): 8 µg/mL
- AB5075 MIC MH ([1]; replicate 3): 8 µg/mL
- Fold Change Hemolysis [2]: 0.6

SMILES: CC(C)C[C@@H]1NC(=O)[C@H](CCCNC(=N)N)NC(=O)[C@H](C(C)C)NC(=O)[C@H](CCCCN)NC(=O)[C@H](CCCNC(=N)N)NC(=O)[C@H](CCCNC(=N)N)NC(=O)[C@H](CCCNC(=N)N)NC(=O)[C@H](CCCNC(=N)N)NC(=O)[C@H](CCCNC(=N)N)NC(=O)[C@H](CC(C)C)NC(=O)[C@H](CCCNC(=N)N)NC(=O)[C@H](C(C)C)NC(=O)[C@H](CCCNC(=N)N)NC(=O)[C@H](CC(C)C)NC(=O)[C@@H](N)CSSC[C@@H](C(=O)O)NC(=O)[C@H](C(C)C)NC(=O)[C@H](CCCNC(=N)N)NC1=O [SySA-5.12] (H-CLRVRLRRRRRKVRLRVC-OH; disulfide 1-18)
- AB5075 MIC FBS ([1]; median of triplicate): > 128 µg/mL
- AB5075 MIC MH ([1]; median of triplicate): 4 µg/mL
- Fold Change Hemolysis [2]: 3.7

SMILES: CC(C)C[C@@H]1NC(=O)[C@H](CCCNC(=N)N)NC(=O)[C@H](C(C)C)NC(=O)[C@H](CCCCN)NC(=O)[C@H](CCCNC(=N)N)NC(=O)[C@H](CCCNC(=N)N)NC(=O)[C@H](CCCNC(=N)N)NC(=O)[C@H](CCCNC(=N)N)NC(=O)[C@H](CCCNC(=N)N)NC(=O)[C@H](CC(C)C)NC(=O)[C@H](CCCNC(=N)N)NC(=O)[C@H](C(C)C)NC(=O)[C@H](CCCNC(=N)N)NC(=O)[C@@H](N)CSSC[C@@H](C(=O)O)NC(=O)[C@H](CCCNC(=N)N)NC1=O [SySA-5.25] (H-CRVRLRRRRRKVRLRC-OH; disulfide 1-16)
- AB5075 MIC FBS ([1]; median of triplicate): > 128 µg/mL
- AB5075 MIC MH ([1]; median of triplicate): 32 µg/mL
- Fold Change Hemolysis [2]: 1.5
